Reference: US11098055B2, “Ester ACC inhibitors and uses thereof” (Gilead Apollo, LLC, priority 2015, dated 2021)
≈ marks a conversion by molar mass, not a printed value. Read-outs that look alike come from different tables or passages of the source.

How the values were obtained:
hACC2 = hACC2 (Homo sapiens, UniProt O00763); experiment: In vitro ACC2 inhibition assay (ADP-Glo), human ACC2; type: biochemical
In short: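 ADP-Glo luminescent ADP detection with 5 nM ACC2, 20 μM ATP, 20 μM acetyl-CoA, 12 mM NaHCO3, 2 mM DTT, 5% DMSO; compound (30 μM-0.00051 μM, 11 points) preincubated 15 min, reaction 60 min at room temperature. Percent inhibition against DMSO and positive controls; IC50 by four-parameter nonlinear fit.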

[1] = tested on: Fusarium virguliforme (Fv); experiment: Growth inhibition assay of fungal pathogens; type: cell-based; details: 48 h, read-out: Concentration at 90% Inhibition Fv
In short: (§1)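 Spores from sub-cultured plates were diluted in 17% V8 liquid medium and exposed to compound at final 50, 10 and 2 ppm or 2, 0.4 and 0.08 ppm with 2% DMSO. OD600 and visual ratings were taken at 24 and 48 h, blank-subtracted. Percent growth inhibition came from 48 h readings against the 2% DMSO control.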

Botrtyis cinerea (Bc) = experiment: Growth inhibition assay of fungal pathogens; type: cell-based; details: 48 h, read-out: Concentration at 90% Inhibition Bc
In short: as §1

[2] = tested on: Collectotrichum graminicola (Cg); experiment: Growth inhibition assay of fungal pathogens; type: cell-based; details: 48 h, read-out: Concentration at 90% Inhibition Cg
In short: as §1

Septoria tritici (St) = experiment: Growth inhibition assay of fungal pathogens; type: cell-based; details: Zymoseptoria tritici, 48 h, read-out: Concentration at 90% Inhibition St
In short: as §1

[3] = tested on: Fusarium moniliforme (Fm); experiment: Growth inhibition assay of fungal pathogens; type: cell-based; details: Fusarium verticillioides, 48 h, read-out: Concentration at 90% Inhibition Fm
In short: as §1

Rhizoctonia solani (Rs) = experiment: Growth inhibition assay of fungal pathogens; type: cell-based; details: 48 h, read-out: Concentration at 90% Inhibition Rs
In short: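 Spores, or mycelial plugs for Rhizoctonia, in 17% V8 medium (¼ PDB for plugs) were exposed to compound at final 50, 10 and 2 ppm or 2, 0.4 and 0.08 ppm, with 2% DMSO. Growth was read by OD600 with blank subtraction plus visual rating; percent inhibition at 48 h is relative to 2% DMSO control.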

Diplodia maydis (Dm) = experiment: Growth inhibition assay of fungal pathogens; type: cell-based; details: Stenocarpella maydis, 48 h, read-out: Concentration at 90% Inhibition Dm
In short: as §1

[4] = tested on: Phytophthora capsici (Pc); experiment: Growth inhibition assay of fungal pathogens; type: cell-based; details: 48 h, read-out: Concentration at 90% Inhibition Pc
In short: as §1

hACC2, sequence (O00763 whole entry): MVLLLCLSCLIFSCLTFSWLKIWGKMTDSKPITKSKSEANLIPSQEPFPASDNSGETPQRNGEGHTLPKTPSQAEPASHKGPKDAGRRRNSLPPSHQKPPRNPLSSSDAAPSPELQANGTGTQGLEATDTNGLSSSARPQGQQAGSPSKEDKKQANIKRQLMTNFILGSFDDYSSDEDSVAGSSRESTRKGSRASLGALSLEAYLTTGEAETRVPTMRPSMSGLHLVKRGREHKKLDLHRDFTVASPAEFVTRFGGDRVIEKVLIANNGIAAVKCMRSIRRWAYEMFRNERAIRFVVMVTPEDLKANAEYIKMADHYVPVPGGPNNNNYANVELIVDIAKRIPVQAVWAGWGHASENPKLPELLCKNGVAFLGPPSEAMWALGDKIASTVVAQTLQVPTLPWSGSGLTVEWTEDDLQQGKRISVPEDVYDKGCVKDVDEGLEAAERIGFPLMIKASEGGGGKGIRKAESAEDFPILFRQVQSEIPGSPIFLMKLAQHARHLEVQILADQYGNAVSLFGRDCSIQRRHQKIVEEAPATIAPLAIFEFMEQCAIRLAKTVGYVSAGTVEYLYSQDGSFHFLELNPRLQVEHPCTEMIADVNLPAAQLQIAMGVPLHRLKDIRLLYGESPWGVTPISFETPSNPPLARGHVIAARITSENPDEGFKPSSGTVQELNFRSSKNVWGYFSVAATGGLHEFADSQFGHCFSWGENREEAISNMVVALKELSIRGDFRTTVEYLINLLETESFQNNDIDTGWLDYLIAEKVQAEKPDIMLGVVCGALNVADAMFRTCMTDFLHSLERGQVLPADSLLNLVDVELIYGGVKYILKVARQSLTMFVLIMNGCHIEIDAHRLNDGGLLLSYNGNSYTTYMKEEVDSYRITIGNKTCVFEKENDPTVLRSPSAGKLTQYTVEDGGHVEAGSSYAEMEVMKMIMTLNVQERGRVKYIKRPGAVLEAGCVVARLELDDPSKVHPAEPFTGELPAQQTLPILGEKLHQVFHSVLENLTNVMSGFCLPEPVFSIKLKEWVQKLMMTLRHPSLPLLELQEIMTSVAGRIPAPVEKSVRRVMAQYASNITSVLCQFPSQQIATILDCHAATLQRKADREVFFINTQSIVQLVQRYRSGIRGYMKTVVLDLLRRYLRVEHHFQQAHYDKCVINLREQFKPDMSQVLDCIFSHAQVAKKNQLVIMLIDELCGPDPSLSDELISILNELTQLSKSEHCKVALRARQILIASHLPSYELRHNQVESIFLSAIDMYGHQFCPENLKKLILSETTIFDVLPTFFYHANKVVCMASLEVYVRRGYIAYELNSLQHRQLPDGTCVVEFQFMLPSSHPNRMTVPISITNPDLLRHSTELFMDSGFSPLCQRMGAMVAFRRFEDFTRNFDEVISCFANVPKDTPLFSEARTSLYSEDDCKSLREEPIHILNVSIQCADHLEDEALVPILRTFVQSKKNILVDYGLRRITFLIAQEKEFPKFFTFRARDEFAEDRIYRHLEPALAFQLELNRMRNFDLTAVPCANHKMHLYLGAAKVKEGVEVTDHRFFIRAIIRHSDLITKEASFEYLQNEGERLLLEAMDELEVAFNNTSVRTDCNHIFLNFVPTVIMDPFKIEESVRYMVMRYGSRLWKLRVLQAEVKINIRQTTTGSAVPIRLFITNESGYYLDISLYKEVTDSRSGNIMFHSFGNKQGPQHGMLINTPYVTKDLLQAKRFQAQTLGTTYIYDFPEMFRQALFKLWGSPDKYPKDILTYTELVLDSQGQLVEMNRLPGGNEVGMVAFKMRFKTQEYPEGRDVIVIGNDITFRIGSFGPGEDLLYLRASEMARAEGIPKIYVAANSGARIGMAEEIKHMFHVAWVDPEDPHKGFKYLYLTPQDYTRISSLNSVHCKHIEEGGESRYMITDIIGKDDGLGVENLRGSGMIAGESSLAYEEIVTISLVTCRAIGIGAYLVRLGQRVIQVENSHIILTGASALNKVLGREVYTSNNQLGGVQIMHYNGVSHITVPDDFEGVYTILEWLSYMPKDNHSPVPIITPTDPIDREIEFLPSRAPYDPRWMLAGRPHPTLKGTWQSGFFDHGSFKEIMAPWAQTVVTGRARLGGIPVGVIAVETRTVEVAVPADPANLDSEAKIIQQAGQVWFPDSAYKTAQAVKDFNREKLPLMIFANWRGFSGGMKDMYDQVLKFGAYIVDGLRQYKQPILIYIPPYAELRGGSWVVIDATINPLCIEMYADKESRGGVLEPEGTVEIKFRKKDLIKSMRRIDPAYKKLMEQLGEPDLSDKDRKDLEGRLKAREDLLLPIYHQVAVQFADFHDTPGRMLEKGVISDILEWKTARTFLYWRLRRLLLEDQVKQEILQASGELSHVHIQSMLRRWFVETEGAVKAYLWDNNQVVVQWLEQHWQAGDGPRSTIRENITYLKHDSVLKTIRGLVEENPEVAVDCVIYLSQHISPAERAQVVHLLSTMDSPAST

SMILES | IC50 (hACC2; Table 2a) [nM] | IC90 ([1]; Table 4a) [µg/mL] | IC90 ([1]; Table 4b) [µg/mL] | IC90 (Botrtyis cinerea (Bc); Table 4a) [µg/mL] | IC90 (Botrtyis cinerea (Bc); Table 4b) [µg/mL] | IC90 ([2]; Table 4a) [µg/mL] | IC90 ([2]; Table 4b) [µg/mL] | IC90 (Septoria tritici (St); Table 4a) [µg/mL] | IC90 (Septoria tritici (St); Table 4b) [µg/mL] | IC90 ([3]; Table 4a) [µg/mL] | IC90 ([3]; Table 4b) [µg/mL] | IC90 (Rhizoctonia solani (Rs); Table 4a) [µg/mL] | IC90 (Rhizoctonia solani (Rs); Table 4b) [µg/mL] | IC90 (Diplodia maydis (Dm); Table 4a) [µg/mL] | IC90 (Diplodia maydis (Dm); Table 4b) [µg/mL] | IC90 ([4]; Table 4a) [µg/mL] | IC90 ([4]; Table 4b) [µg/mL] | IC50 (hACC2; Table 2b (additional results)) [nM]
CCOC(=O)c1sc2c(c1C)c(=O)n(C(C)(C)C(=O)N1CCCC1)c(=O)n2C[C@H](OCCOC)c1cc(F)ccc1OC [Compound I-13, (R)-ethyl 1-(2-(5-fluoro-2-methoxyphenyl)-2-(2-methoxy-ethoxy)ethyl)-5-methyl-3-(2-methyl-1-oxo-1-(pyrrolidin-1-yl)propan-2-yl)-2,4-dioxo-1,2,3,4-tetrahydrothieno[2,3-d]pyrimidine-6-carboxylate] | 10 to 40 | 2 (≈ 3.23 µM) | 2 (≈ 3.23 µM) | 2 (≈ 3.23 µM) | 2 (≈ 3.23 µM) | 2 (≈ 3.23 µM) | 2 (≈ 3.23 µM) | ≥ 50 | ≥ 50 | 0.4 (≈ 0.645 µM) | 0.4 (≈ 0.645 µM) | ≥ 50 | 10 (≈ 16.1 µM) | ≥ 50 | 10 (≈ 16.1 µM) | ≥ 50 | ≥ 50 | 
CCOC(=O)c1sc2c(c1C)c(=O)n(C(C)(C)C(N)=O)c(=O)n2C[C@H](OCCO)c1cc(F)ccc1OC [Compound I-17, (R)-ethyl 3-(1-amino-2-methyl-1-oxopropan-2-yl)-1-(2-(5-fluoro-2-methoxyphenyl)-2-(2-hydroxyethoxy)ethyl)-5-methyl-2,4-dioxo-1,2,3,4-tetrahydro-thieno[2,3-d]pyrimidine-6-carboxylate] | 10 to 40 | ≥ 50 | ≥ 50 | ≥ 50 | 10 (≈ 18.1 µM) | ≥ 50 | ≥ 50 | ≥ 50 | ≥ 50 | 2 (≈ 3.63 µM) | 2 (≈ 3.63 µM) | 2 (≈ 3.63 µM) | 2 (≈ 3.63 µM) | ≥ 50 | ≥ 50 | ≥ 50 | ≥ 50 | 
CCOC(=O)c1sc2c(c1C)c(=O)n(C(C)(C)C(N)=O)c(=O)n2C[C@H](OCCC#N)c1cc(F)ccc1OC [Compound I-14, (R)-ethyl 3-(1-amino-2-methyl-1-oxopropan-2-yl)-1-(2-(2-cyanoethoxy)-2-(5-fluoro-2-methoxyphenyl)ethyl)-5-methyl-2,4-dioxo-1,2,3,4-tetrahydro-thieno[2,3-d]pyrimidine-6-carboxylate] | 3 to 10 | ≥ 50 | 10 (≈ 17.8 µM) | 2 (≈ 3.57 µM) | 2 (≈ 3.57 µM) | ≥ 50 | ≥ 50 | ≥ 50 | ≥ 50 | 0.4 (≈ 0.714 µM) | 0.4 (≈ 0.714 µM) | ≥ 50 | 10 (≈ 17.8 µM) | ≥ 50 | ≥ 50 | ≥ 50 | ≥ 50 | 
CCOC(=O)c1sc2c(c1C)c(=O)n(C(C)(C)C(=O)NC(C)C)c(=O)n2C[C@H](OCC(C)(C)C#N)c1ccccc1OC [Compound I-38, ethyl (R)-1-(2-(2-cyano-2-methylpropoxy)-2-(2-methoxyphenyl)ethyl)-3-(1-(isopropylamino)-2-methyl-1-oxopropan-2-yl)-5-methyl-2,4-dioxo-1,2,3,4-tetrahydrothieno[2,3-d]pyrimidine-6-carboxylate] |  |  | 2 (≈ 3.26 µM) |  | 0.4 (≈ 0.653 µM) |  | 2 (≈ 3.26 µM) |  | ≥ 50 |  | 0.08 (≈ 0.131 µM) |  | 2 (≈ 3.26 µM) |  | 2 (≈ 3.26 µM) |  | ≥ 50 | 10 to 40
CCOC(=O)c1sc2c(c1C)c(=O)n(C(C)(C)C(=O)N1CCCCC1)c(=O)n2C[C@H](OC1CCOCC1)c1ccccc1OC [Compound I-2, ethyl (R)-1-(2-(2-methoxyphenyl)-2-((tetrahydro-2H-pyran-4-yl)oxy)ethyl)-5-methyl-3-(2-methyl-1-oxo-1-(piperidin-1-yl)propan-2-yl)-2,4-dioxo-1,2,3,4-tetrahydrothieno[2,3-d]pyrimidine-6-carboxylate] | 10 to 40 | 0.4 (≈ 0.623 µM) | 0.4 (≈ 0.623 µM) | 0.4 (≈ 0.623 µM) | 0.4 (≈ 0.623 µM) | 0.4 (≈ 0.623 µM) | 0.4 (≈ 0.623 µM) | ≥ 50 | 10 (≈ 15.6 µM) | 0.4 (≈ 0.623 µM) | 0.4 (≈ 0.623 µM) | 2 (≈ 3.12 µM) | 0.4 (≈ 0.623 µM) | 2 (≈ 3.12 µM) | 2 (≈ 3.12 µM) | ≥ 50 | ≥ 50 | 10 to 40
CCOC(=O)c1sc2c(c1C)c(=O)n([C@H](C)C(=O)N1CCCC1)c(=O)n2C[C@H](OCCC#N)c1cc(F)ccc1OC [Compound I-24, ethyl 1-((R)-2-(2-cyanoethoxy)-2-(5-fluoro-2-methoxy-phenyl)ethyl)-5-methyl-2,4-dioxo-3-((R)-1-oxo-1-(pyrrolidin-1-yl)propan-2-yl)-1,2,3,4-tetrahydrothieno[2,3-d]pyrimidine-6-carboxylate] |  |  | 2 (≈ 3.33 µM) |  | 2 (≈ 3.33 µM) |  | 2 (≈ 3.33 µM) |  | ≥ 50 |  | 0.08 (≈ 0.133 µM) |  | 0.08 (≈ 0.133 µM) |  | 2 (≈ 3.33 µM) |  | ≥ 50 | 3 to 10
CCOC(=O)c1sc2c(c1C)c(=O)n(C(C)(C)C(=O)NC(C)C)c(=O)n2C[C@H](O)c1cc(F)ccc1OC [Compound I-19, (R)-ethyl 1-(2-(5-fluoro-2-methoxyphenyl)-2-hydroxyethyl)-3-(1-(isopropylamino)-2-methyl-1-oxopropan-2-yl)-5-methyl-2,4-dioxo-1,2,3,4-tetrahydrothieno[2,3-d]pyrimidine-6-carboxylate] |  | 0.08 (≈ 0.146 µM) | 0.08 (≈ 0.146 µM) | 0.4 (≈ 0.728 µM) | 0.4 (≈ 0.728 µM) | 2 (≈ 3.64 µM) | 2 (≈ 3.64 µM) | ≥ 50 | ≥ 50 | 0.08 (≈ 0.146 µM) | 0.08 (≈ 0.146 µM) | 0.4 (≈ 0.728 µM) | 0.4 (≈ 0.728 µM) | 2 (≈ 3.64 µM) | 2 (≈ 3.64 µM) | ≥ 50 | ≥ 50 | 3 to 10
CCOC(=O)c1sc2c(c1C)c(=O)n(C(C)(C)C(=O)N1CCCC1)c(=O)n2C[C@H](OCCC#N)c1cc(F)ccc1OC [Compound I-16, (R)-ethyl 1-(2-(2-cyanoethoxy)-2-(5-fluoro-2-methoxy-phenyl)ethyl)-5-methyl-3-(2-methyl-1-oxo-1-(pyrrolidin-1-yl)propan-2-yl)-2,4-dioxo-1,2,3,4-tetrahydrothieno[2,3-d]pyrimidine-6-carboxylate] | 3 to 10 | 2 (≈ 3.25 µM) | 2 (≈ 3.25 µM) | 2 (≈ 3.25 µM) | 2 (≈ 3.25 µM) | 2 (≈ 3.25 µM) | 2 (≈ 3.25 µM) | ≥ 50 | ≥ 50 | 0.08 (≈ 0.13 µM) | 0.08 (≈ 0.13 µM) | 0.4 (≈ 0.651 µM) | 0.4 (≈ 0.651 µM) | 2 (≈ 3.25 µM) | 2 (≈ 3.25 µM) | ≥ 50 | ≥ 50 | 
CCNC(=O)C(C)(C)n1c(=O)c2c(C)c(C(=O)OCC)sc2n(C[C@H](O)c2cc(F)ccc2OC)c1=O [Compound I-39, ethyl (R)-3-(1-(ethylamino)-2-methyl-1-oxopropan-2-yl)-1-(2-(5-fluoro-2-methoxyphenyl)-2-hydroxyethyl)-5-methyl-2,4-dioxo-1,2,3,4-tetrahydrothieno[2,3-d]pyrimidine-6-carboxylate] |  |  | 2 (≈ 3.73 µM) |  | 10 (≈ 18.7 µM) |  | ≥ 50 |  | ≥ 50 |  | 2 (≈ 3.73 µM) |  | 0.08 (≈ 0.149 µM) |  | ≥ 50 |  | ≥ 50 | 10 to 40
CCOC(=O)c1sc2c(c1C)c(=O)n(C(C)(C)C(=O)NC(C)C)c(=O)n2C[C@H](OCCC#N)c1cc(F)ccc1OC [Compound I-15, (R)-ethyl 1-(2-(2-cyanoethoxy)-2-(5-fluoro-2-methoxy-phenyl)ethyl)-3-(1-(isopropylamino)-2-methyl-1-oxopropan-2-yl)-5-methyl-2,4-dioxo-1,2,3,4-tetrahydrothieno[2,3-d]pyrimidine-6-carboxylate] | 10 to 40 | 0.4 (≈ 0.664 µM) | 0.4 (≈ 0.664 µM) | 0.4 (≈ 0.664 µM) | 0.4 (≈ 0.664 µM) | 0.08 (≈ 0.133 µM) | 0.08 (≈ 0.133 µM) | ≥ 50 | 10 (≈ 16.6 µM) | 0.08 (≈ 0.133 µM) | 0.08 (≈ 0.133 µM) | 0.08 (≈ 0.133 µM) | 0.08 (≈ 0.133 µM) | 0.08 (≈ 0.133 µM) | 0.08 (≈ 0.133 µM) | ≥ 50 | 10 (≈ 16.6 µM) | 3 to 10
